Assay [1] has as its target T1, GSK-3 (Leishmania donovani, UniProt A6N857).
T1 sequence (A6N857 1-355): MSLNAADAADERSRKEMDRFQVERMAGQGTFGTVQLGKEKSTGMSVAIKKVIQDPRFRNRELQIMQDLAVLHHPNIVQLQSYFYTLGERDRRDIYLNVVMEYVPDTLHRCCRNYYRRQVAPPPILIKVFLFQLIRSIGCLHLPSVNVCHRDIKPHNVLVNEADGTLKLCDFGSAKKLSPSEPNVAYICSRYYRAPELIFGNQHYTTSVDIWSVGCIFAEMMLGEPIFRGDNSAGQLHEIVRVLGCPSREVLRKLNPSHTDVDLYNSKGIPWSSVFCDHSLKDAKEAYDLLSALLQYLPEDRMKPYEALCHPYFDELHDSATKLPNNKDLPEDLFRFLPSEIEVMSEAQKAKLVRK
Description: Species specificity: recombinant tagged GSK-3 orthologue kinase assay. The assay is classed as biochemical.
Description: (§1) Following PCR amplification from cDNA libraries or direct synthesis based on databases sequences, the GSK-3 genes were inserted in appropriate expression vectors and recombinant, tagged kinases were expressed, affinity purified and assayed in the presence of up to 10-100µM of each compound of formula (I) according to the present invention and a selection of the PfGSK-3 inhibitors.

Assay [2] addresses T2, GSK-3 (Toxoplasma gondii, UniProt O44002).
T2 sequence (O44002 1-394): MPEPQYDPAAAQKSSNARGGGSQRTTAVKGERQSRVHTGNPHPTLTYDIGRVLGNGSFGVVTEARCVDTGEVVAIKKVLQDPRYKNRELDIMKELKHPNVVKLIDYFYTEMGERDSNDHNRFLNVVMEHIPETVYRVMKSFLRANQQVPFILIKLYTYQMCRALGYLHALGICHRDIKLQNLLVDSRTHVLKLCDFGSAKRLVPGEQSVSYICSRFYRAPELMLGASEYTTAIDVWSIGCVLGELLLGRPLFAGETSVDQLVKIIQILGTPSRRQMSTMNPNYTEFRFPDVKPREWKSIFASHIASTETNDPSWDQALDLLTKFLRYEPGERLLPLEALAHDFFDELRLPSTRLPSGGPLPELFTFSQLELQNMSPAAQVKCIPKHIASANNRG
The assay is described as above. In kind it is biochemical, Toxaplasma grondii.
Description: as §1

Another assay addresses T3, PfGSK-3 (Plasmodium falciparum, UniProt O77344).
T3 construct: His6; made in house; host or cells: Escherichia coli TOP 10
T3 sequence (O77344 1-440): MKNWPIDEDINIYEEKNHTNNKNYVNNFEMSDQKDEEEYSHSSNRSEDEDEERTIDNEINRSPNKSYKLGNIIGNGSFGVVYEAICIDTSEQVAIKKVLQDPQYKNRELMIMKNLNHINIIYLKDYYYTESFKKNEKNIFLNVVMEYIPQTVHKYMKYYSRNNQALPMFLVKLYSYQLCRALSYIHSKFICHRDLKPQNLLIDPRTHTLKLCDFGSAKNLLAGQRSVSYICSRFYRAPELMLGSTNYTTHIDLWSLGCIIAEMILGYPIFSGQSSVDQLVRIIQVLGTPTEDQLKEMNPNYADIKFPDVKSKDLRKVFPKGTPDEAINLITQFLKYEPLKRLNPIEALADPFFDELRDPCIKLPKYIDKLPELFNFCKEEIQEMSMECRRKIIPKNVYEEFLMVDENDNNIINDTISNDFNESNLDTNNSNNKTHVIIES
Nature of the assay: Kinase assay with recombinant (His)6-tagged PfGSK3, GS-1 peptide and [γ-33P] ATP. Particulars: for anti-PfGSK-3 IC50 values: result in words. The assay is classed as biochemical. As for the experimental part:
Escherichia coli strain (TOP 10) containing a plasmid encoding PfGSK3 with six histidines (pBAD-Thio-TOPO, Invitrogen) were cultured into 500 ml of LB medium containing 100 µg/ml ampicillin, at 37°C, under shaking (250 rpm) until OD600 of 0.5 was reached. Expression was induced with 0.5 ml of 20% arabinose (0.02% final concentration). The culture was grown at 37°C with shaking for 4 hours. Cells were harvested by centrifugation at 9000 rpm for 10 min. The bacterial pellet was stored frozen at -80°C until further processing. For proteins extraction, pellet was resuspended in 10 ml of lysis buffer (50 mM NaH2PO4 pH 8.0, 300 mM NaCl, 10 mM imidazole) with the addition of protease inhibitors (complete EDTA-free, Roche) and lysozyme ([…] final). Cells were disrupted by sonication and the cell lysate was centrifuged at 24000 rpm for 30 min at 4°C. The recombinant PfGSK3 protein was purified by Immobilized Metal Affinity Chromatography according to a batch procedure on 1 ml of Nickel affinity resin (Ni-NTA agarose beads, Qiagen). Beads were washed four times with 10 ml of wash buffer (50 mM NaH2PO4 pH 8.0, 300 mM NaCl, 30 mM imidazole). Protein was eluted with one volume of elution buffer (50 mM NaH2PO4 pH 8.0, 300 mM NaCl, 250 mM imidazole, 10% glycerol).
Both porcine GSK3 and PfGSK3 were assayed with 40 µM GS-1 peptide, a specific GSK-3 substrate, ([…]pEDEEE, synthesized by the Peptide Synthesis Unit, Institute of Biomolecular Sciences, University of Southampton, U.K.), in buffer A (25 mM Tris-HCl pH 7.5, 10 mM MgC12, 1 mM EGTA, 1 mM DTT, 50 µg heparin/ml, 0.5 mg BSA/ml) in the presence of 15 µM [γ-^33P] ATP (3000 Ci/mmol; 1 mCi/ml) in a final volume of 30 µl. After 30 min. incubation at 30°C, 25 µl aliquots of supernatant were spotted onto 2.5 x 3 cm pieces of Whatman P81 phosphocellulose paper, and, 20 sec. later, the filters were washed five times (for at least 5 min. each time) in 1 % phosphoric acid. The wet filters were counted in the presence of 1 ml ACS (Amersham) scintillation fluid. The kinase activity was expressed in pmoles phosphate incorporated in GS-1 or in percentage of the maximal activity.

Assay [3] deals with T4, GSK-3 (Cryptosporidium parvum, UniProt A3FQN0).
T4 sequence (A3FQN0 1-433): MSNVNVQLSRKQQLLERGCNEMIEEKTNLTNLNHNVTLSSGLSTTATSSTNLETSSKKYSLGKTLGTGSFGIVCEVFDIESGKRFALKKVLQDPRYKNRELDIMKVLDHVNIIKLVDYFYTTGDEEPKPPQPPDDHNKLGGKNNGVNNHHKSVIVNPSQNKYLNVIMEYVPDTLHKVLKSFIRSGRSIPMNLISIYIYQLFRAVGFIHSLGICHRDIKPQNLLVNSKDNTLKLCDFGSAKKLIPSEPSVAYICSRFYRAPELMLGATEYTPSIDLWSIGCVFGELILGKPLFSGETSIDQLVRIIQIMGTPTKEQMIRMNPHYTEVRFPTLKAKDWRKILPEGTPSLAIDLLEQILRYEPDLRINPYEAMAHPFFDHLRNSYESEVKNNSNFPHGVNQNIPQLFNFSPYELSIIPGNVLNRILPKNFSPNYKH
Nature of the assay: Species specificity: recombinant tagged GSK-3 orthologue kinase assay. In kind it is biochemical.
Description: as §1

The mark [4] stands for this setting: calculated from dose-response curves; read-out: IC50 Leishmania donovani.
Setting [5] is: calculated from dose-response curves, -(100) taken as no inhibition at 100, read-out: IC50 Toxaplasma grondii.
Setting [6] is: calculated from dose-response curves, -(100) taken as no inhibition at 100, read-out: IC50 Cryptosporidium parvum.
The mark [7] stands for this setting: read-out: IC50 Leishmania donovani; calculated from dose-response curves.
[8] abbreviates: unit only in the introducing sentence b99, not in the table, read-out: IC50 PfGSK-3.

Consider 5 molecules from patent EP2308883A1, “New derivatives of thieno[2,3-b]pyridine and 5,6,7,8 tetrahydrothieno[2,3 b]quinoline in particular useful in the treatment of malaria” (priority 2009, dated 2011).

Like-named read-outs stand apart in the source and are kept apart here.

By IC50 is commonly meant the midpoint of a concentration-inhibition curve.

On to `N#Cc1c(N)nc2sc(C(=O)c3cccc(Cl)c3)c(N)c2c1-c1ccccc1Br` [Compound 20, 3,6-diamino-4-(2-bromophenyl)-2-(3-chlorobenzoyl)thieno[2,3-b]pyridine-5-carbonitrile], for which the IC50 on GSK-3 [1] (setting [4]) was 44 µM; on GSK-3 [2] (setting [5]), > 100 µM; on GSK-3 [3] (setting [6]), > 100 µM. The “anti-PfGSK-3 IC50 values” at PfGSK-3 is reported as “particularly good”.

For `N#Cc1c(N)nc2sc(C(=O)c3cccc(Cl)c3)c(N)c2c1-c1ccccc1Cl` [Compound 22, 3,6-diamino-2-(3-chlorobenzoyl)-4-(2-chlorophenyl)thieno[2,3-b]pyridine-5-carbonitrile], the IC50 on GSK-3 [1] (setting [7]) was 72 µM; on GSK-3 [2], > 100 µM; on PfGSK-3 (read-out: PfGSK-3 IC50), 0.47 µM; on PfGSK-3 (setting [8]), 0.06 µM; on GSK-3 [3] it was > 100 µM. For the same molecule, the “anti-PfGSK-3 IC50 values” on PfGSK-3 was “particularly good”.

In the case of `N#Cc1c(N)nc2sc(C(=O)c3cccc(Cl)c3)c(N)c2c1-c1ccccc1I` [Compound 14, 3,6-diamino-2-(3-chlorobenzoyl)-4-(2-iodophenyl)thieno[2,3-b]pyridine-5-carbonitrile], the IC50 on GSK-3 [1] (setting [4]) was 70 µM; on GSK-3 [2] (setting [5]) it was > 100 µM; at GSK-3 [3] (setting [6]), > 100 µM. For the same molecule, the “anti-PfGSK-3 IC50 values” at PfGSK-3 is “particularly good”.

Turning to `N#Cc1cccc(C(=O)c2sc3nc(N)c(C#N)c(-c4ccccc4Cl)c3c2N)c1` [Compound 26, 3,6-diamino-4-(2-chlorophenyl)-2-(3-cyanobenzoyl)thieno[2,3-b]pyridine-5-carbonitrile], the half-maximal inhibitory concentration (IC50) at GSK-3 [1] (setting [4]) was 100 µM; at GSK-3 [2] (setting [5]), > 100 µM; at PfGSK-3 (setting [8]), 0.5 µM; at GSK-3 [3] (setting [6]) it was > 100 µM. Besides, the “anti-PfGSK-3 IC50 values” on PfGSK-3 is “particularly good”.

With `COc1ccccc1-c1c(C#N)c(N)nc2sc(C(=O)c3ccccc3)c(N)c12` [Compound 2, 3,6-diamino-2-benzoyl-4-(2-methoxyphenyl)thieno[2,3-b]pyridine-5-carbonitrile], the IC50 is 80 µM at GSK-3 [1] (setting [7]), > 100 µM on GSK-3 [2] and > 100 µM at GSK-3 [3]. In addition, the “anti-PfGSK-3 IC50 values” on PfGSK-3 was “particularly good”.
